These results are taken from the NIST ThermoML archive (doi:10.1016/j.tca.2012.02.005).

Numbers after ± are expanded uncertainties.

The data set is described as follows: activity coefficient (dimensionless); of the first substance listed, at infinite dilution; xn = mol fraction of the nth substance listed. The settings on record: 298.15 K; 101 kPa; Liquid; Chromatography; x1 = 0.
For the molecule `CCCCN` [1-butanamine] + CO, the activity coefficient came out at 0.46 ± 0.07.
In the case of `CCCCCCN` [1-hexanamine] + CO it was 13.7 ± 2.3.
In the case of `CCCCCCN` [1-hexanamine] + c1ccccc1 it was 16.2 ± 3.1; in that of `Cc1cccc(C)n1` [2,6-dimethylpyridine] + CO, 0.94 ± 0.07; in that of `CCC(C)N` (centres undefined) [2-butanamine] + CO, 0.75 ± 0.1.
In the case of `CCC(C)N` (centres undefined) [2-butanamine] + c1ccccc1 it was 1.15 ± 0.17; in that of `CC(C)(C)N` [2-methyl-2-propanamine] + CO, 0.25 ± 0.05; in that of `CC(C)(C)N` [2-methyl-2-propanamine] + c1ccccc1, 1.32 ± 0.21.
Turning to `Cc1ccccn1` [2-methylpyridine] + CO, the activity coefficient was determined as 0.75 ± 0.07.
In the case of `Cc1cccnc1` [3-methylpyridine] + CO, the activity coefficient is 0.82 ± 0.07.
In the case of `Cc1cccnc1` [3-methylpyridine] + c1ccccc1 it was 0.96 ± 0.12.
For `Cc1ccncc1` [4-methylpyridine] + CO, the activity coefficient is 1 ± 0.12.
The value for `NC1CCCCC1` [cyclohexylamine] + CO was 4.81 ± 0.47; that for `NC1CCCCC1` [cyclohexylamine] + c1ccccc1 was 6.43 ± 1; that for `CCNCC` [diethylamine] + CO was 0.33 ± 0.05.
Consider `CCCNCCC` [dipropylamine] + CO, for which the activity coefficient was 0.91 ± 0.12.
Turning to `CCCNCCC` [dipropylamine] + c1ccccc1, the activity coefficient is 1.48 ± 0.15.
As to `CO` [methanol] + C1CCNCC1, the activity coefficient worked out at 0.43 ± 0.03.
In the case of `CO` [methanol] + CC(C)(C)N it was 0.29 ± 0.05; in that of `CO` [methanol] + CCC(C)N, 0.38 ± 0.05.
In the case of `CO` [methanol] + CCCCCCN it was 0.38 ± 0.05; in that of `CO` [methanol] + CCCCN, 0.35 ± 0.07; in that of `CO` [methanol] + CCCNCCC, 0.69 ± 0.05.
In the case of `CO` [methanol] + CCNCC it was 0.51 ± 0.03; in that of `CO` [methanol] + Cc1cccc(C)n1, 0.61 ± 0.1; in that of `CO` [methanol] + Cc1ccccn1, 0.79 ± 0.1.
With `CO` [methanol] + Cc1cccnc1, the activity coefficient was 0.94 ± 0.12.
In the case of `CO` [methanol] + Cc1ccncc1 it was 0.68 ± 0.1.
On to `CO` [methanol] + NC1CCCCC1, for which the activity coefficient was 0.33 ± 0.03.
The value for `c1ccncc1` [pyridine] + CO was 1.2 ± 0.19.
The value for `CCN(CC)CC` [triethylamine] + c1ccccc1 was 1.28 ± 0.1.
The value for `CCCN(CCC)CCC` [tripropylamine] + CCCCCCCCCCCCCCCC was 1.01.
For the molecule `CCCN(CCC)CCC` [tripropylamine] + CO, the activity coefficient amounted to 8.79 ± 1.6.
Consider `CCCN(CCC)CCC` [tripropylamine] + c1ccccc1, for which the activity coefficient stood at 2.79 ± 0.62.
